Data reported in US6358885B1, “Substituted phenylheterocyclic herbicides” (Mississippi State University, priority 1992, dated 2002).

Columns and labels:
Experiment in all cases: Test G preemergence/postemergence greenhouse plant response rating 0 to 100
[1] = test system: sandbur; type: in vivo, Cenchrus echinatus; conditions: 0 to 100 scale
Method in brief: (§1)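 Pre- and postemergence treatments used compound in non-phytotoxic solvent on potted greenhouse plants grown from seed, rhizome or plant part. Postemergence plants were at the 2–4 leaf stage; damage was assessed by eye versus untreated pots after 13–21 days.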

[2] = test system: broadleaf signalgrass; type: in vivo, Brachiaria plantaginea; conditions: 0 to 100 scale
Method in brief: as §1

[3] = test system: itchgrass; type: in vivo, Rottboellia exaltata; conditions: 0 to 100 scale
Method in brief: as §1

[4] = test system: dallisgrass; type: in vivo, Paspalum dilatatum; conditions: 0 to 100 scale
Method in brief: as §1

[5] = test system: common purslane; type: in vivo, Portulaca oleracea; conditions: 0 to 100 scale
Method in brief: as §1

[6] = test system: common ragweed; type: in vivo, Ambrosia elatior; conditions: 0 to 100 scale
Method in brief: as §1

[7] = test system: goosegrass; type: in vivo, Eleusine indica; conditions: 0 to 100 scale
Method in brief: as §1

[8] = test system: johnsongrass; type: in vivo, Sorghum halepense; conditions: 0 to 100 scale
Method in brief: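 Scoring: visual injury at 13 to 21 days post-application, compared with untreated controls. Planting: one species per pot in greenhouse medium. Dosing: compound in non-phytotoxic solvent, within one day of sowing for preemergence or at 2–4 leaves for postemergence.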

[9] = test system: guineagrass; type: in vivo, Panicum maximum; conditions: 0 to 100 scale
Method in brief: as §1

[10] = test system: annual bluegrass; type: in vivo, Poa annua; conditions: 0 to 100 scale
Method in brief: as §1

[11] = test system: smooth crabgrass; type: in vivo, Digitaria ischaemum; conditions: 0 to 100 scale
Method in brief: as §1

[12] = test system: alfalfa; type: in vivo, Medicago ativa; conditions: 0 to 100 scale
Method in brief: as §1

[13] = test system: large crabgrass; type: in vivo, Digitaria sanguinalis; conditions: 0 to 100 scale
Method in brief: as §1

[14] = test system: purple nutsedge; type: in vivo, Cyperus rotundus; conditions: Rate 125 g/ha, 0 to 100 scale
Method in brief: as §1

[15] = test system: bermudagrass; type: in vivo, Cynodon dactylon; conditions: 0 to 100 scale
Method in brief: as §1

[16] = test system: pitted morningglory; type: in vivo, Ipomoea lacunosa; conditions: 0 to 100 scale
Method in brief: as §1

For `CCCN1C(=O)COc2cc(F)c(-c3nn4c(c3Cl)CCCC4)cc21` [Compound 32], the “Plant response rating, S. Sandbur” value ([1]; POSTEMERGENCE, Rate 125 g/ha) was 0, the “Plant response rating, S. Sandbur” value ([1]; POSTEMERGENCE, Rate 250 g/ha) was 0 and the “Plant response rating, S. Sandbur” value ([1]; PREEMERGENCE, Rate 125 g/ha) was 0. The “Plant response rating, S. Sandbur” value ([1]; PREEMERGENCE, Rate 250 g/ha) was 0, the “Plant response rating, Brdlf Sgnlgrass” value ([2]; POSTEMERGENCE, Rate 125 g/ha) was 0 and the “Plant response rating, Brdlf Sgnlgrass” value ([2]; POSTEMERGENCE, Rate 250 g/ha) was 0. The “Plant response rating, Brdlf Sgnlgrass” value ([2]; PREEMERGENCE, Rate 125 g/ha) was 0, the “Plant response rating, Brdlf Sgnlgrass” value ([2]; PREEMERGENCE, Rate 250 g/ha) was 0 and the “Plant response rating, Itchgrass” value ([3]; POSTEMERGENCE, Rate 125 g/ha) was 0. For the same compound, the “Plant response rating, Itchgrass” value ([3]; POSTEMERGENCE, Rate 250 g/ha) was 0, the “Plant response rating, Itchgrass” value ([3]; PREEMERGENCE, Rate 125 g/ha) was 0 and the “Plant response rating, Itchgrass” value ([3]; PREEMERGENCE, Rate 250 g/ha) was 0. The “Plant response rating, Dallisgrass” value ([4]; POSTEMERGENCE, Rate 125 g/ha) was 0, the “Plant response rating, Dallisgrass” value ([4]; POSTEMERGENCE, Rate 250 g/ha) was 0 and the “Plant response rating, Dallisgrass” value ([4]; PREEMERGENCE, Rate 125 g/ha) was 0. For the same compound, the “Plant response rating, Dallisgrass” value ([4]; PREEMERGENCE, Rate 250 g/ha) was 0, the “Plant response rating, Cmn Purslane” value ([5]; POSTEMERGENCE, Rate 125 g/ha) was 100 and the “Plant response rating, Cmn Purslane” value ([5]; POSTEMERGENCE, Rate 250 g/ha) was 80. For the same compound, the “Plant response rating, Cmn Purslane” value ([5]; PREEMERGENCE, Rate 125 g/ha) was 0, the “Plant response rating, Cmn Purslane” value ([5]; PREEMERGENCE, Rate 250 g/ha) was 100 and the “Plant response rating, Cmn Ragweed” value ([6]; POSTEMERGENCE, Rate 125 g/ha) was 100. The “Plant response rating, Cmn Ragweed” value ([6]; POSTEMERGENCE, Rate 250 g/ha) was 60, the “Plant response rating, Cmn Ragweed” value ([6]; PREEMERGENCE, Rate 125 g/ha) was 0 and the “Plant response rating, Cmn Ragweed” value ([6]; PREEMERGENCE, Rate 250 g/ha) was 0. For the same compound, the “Plant response rating, Goosegrass” value ([7]; POSTEMERGENCE, Rate 125 g/ha) was 0, the “Plant response rating, Goosegrass” value ([7]; POSTEMERGENCE, Rate 250 g/ha) was 0 and the “Plant response rating, Goosegrass” value ([7]; PREEMERGENCE, Rate 125 g/ha) was 0. For the same compound, the “Plant response rating, Goosegrass” value ([7]; PREEMERGENCE, Rate 250 g/ha) was 0, the “Plant response rating, Johnsongrass” value ([8]; POSTEMERGENCE, Rate 125 g/ha) was 0 and the “Plant response rating, Johnsongrass” value ([8]; POSTEMERGENCE, Rate 250 g/ha) was 0. For the same compound, the “Plant response rating, Johnsongrass” value ([8]; PREEMERGENCE, Rate 125 g/ha) was 0, the “Plant response rating, Johnsongrass” value ([8]; PREEMERGENCE, Rate 250 g/ha) was 0 and the “Plant response rating, Guineagrass” value ([9]; POSTEMERGENCE, Rate 125 g/ha) was 0. For the same compound, the “Plant response rating, Guineagrass” value ([9]; POSTEMERGENCE, Rate 250 g/ha) was 0, the “Plant response rating, Guineagrass” value ([9]; PREEMERGENCE, Rate 125 g/ha) was 0 and the “Plant response rating, Guineagrass” value ([9]; PREEMERGENCE, Rate 250 g/ha) was 0. The “Plant response rating, Ann Bluegrass” value ([10]; POSTEMERGENCE, Rate 125 g/ha) was 0, the “Plant response rating, Ann Bluegrass” value ([10]; POSTEMERGENCE, Rate 250 g/ha) was 0 and the “Plant response rating, Ann Bluegrass” value ([10]; PREEMERGENCE, Rate 125 g/ha) was 0. For the same compound, the “Plant response rating, Ann Bluegrass” value ([10]; PREEMERGENCE, Rate 250 g/ha) was 0, the “Plant response rating, Smooth Crabgras” value ([11]; POSTEMERGENCE, Rate 125 g/ha) was 0 and the “Plant response rating, Smooth Crabgras” value ([11]; POSTEMERGENCE, Rate 250 g/ha) was 0. For the same compound, the “Plant response rating, Smooth Crabgras” value ([11]; PREEMERGENCE, Rate 125 g/ha) was 0, the “Plant response rating, Smooth Crabgras” value ([11]; PREEMERGENCE, Rate 250 g/ha) was 0 and the “Plant response rating, Alfalfa Var.” value ([12]; POSTEMERGENCE, Rate 125 g/ha) was 0. For the same compound, the “Plant response rating, Alfalfa Var.” value ([12]; POSTEMERGENCE, Rate 250 g/ha) was 0, the “Plant response rating, Alfalfa Var.” value ([12]; PREEMERGENCE, Rate 125 g/ha) was 0 and the “Plant response rating, Alfalfa Var.” value ([12]; PREEMERGENCE, Rate 250 g/ha) was 0. For the same compound, the “Plant response rating, Large Crabgrass” value ([13]; POSTEMERGENCE, Rate 125 g/ha) was 0, the “Plant response rating, Large Crabgrass” value ([13]; POSTEMERGENCE, Rate 250 g/ha) was 0 and the “Plant response rating, Large Crabgrass” value ([13]; PREEMERGENCE, Rate 125 g/ha) was 0. For the same compound, the “Plant response rating, Large Crabgrass” value ([13]; PREEMERGENCE, Rate 250 g/ha) was 0, the “Plant response rating, Purple Nutsedge” value ([14]; POSTEMERGENCE) was 10 and the “Plant response rating, Purple Nutsedge” value ([14]; PREEMERGENCE) was 0. For the same compound, the “Plant response rating, Bermudagrass” value ([15]; POSTEMERGENCE, Rate 125 g/ha) was 0, the “Plant response rating, Bermudagrass” value ([15]; POSTEMERGENCE, Rate 250 g/ha) was 0 and the “Plant response rating, Bermudagrass” value ([15]; PREEMERGENCE, Rate 125 g/ha) was 0. The “Plant response rating, Bermudagrass” value ([15]; PREEMERGENCE, Rate 250 g/ha) was 0, the “Plant response rating, Pit Morninglory” value ([16]; POSTEMERGENCE, Rate 125 g/ha) was 70 and the “Plant response rating, Pit Morninglory” value ([16]; POSTEMERGENCE, Rate 250 g/ha) was 30. The “Plant response rating, Pit Morninglory” value ([16]; PREEMERGENCE, Rate 125 g/ha) was 0 and the “Plant response rating, Pit Morninglory” value ([16]; PREEMERGENCE, Rate 250 g/ha) was 0.
